{
  "source": "patent US20150232876A1",
  "about": "“Use of a Receptor Kinase Having LysM Motifs in Order to Improve the Response of Plants to Lipochitooligosaccharides” (INSTITUT NATIONAL DE LA RECHERCHE AGRONOMIQUE, priority 2012, published 2015)",
  "key": {"LYR3": {"target": "LYR3 (Medicago truncatula, UniProt G7KAT5)", "sequence (G7KAT5 entry or part of it)": "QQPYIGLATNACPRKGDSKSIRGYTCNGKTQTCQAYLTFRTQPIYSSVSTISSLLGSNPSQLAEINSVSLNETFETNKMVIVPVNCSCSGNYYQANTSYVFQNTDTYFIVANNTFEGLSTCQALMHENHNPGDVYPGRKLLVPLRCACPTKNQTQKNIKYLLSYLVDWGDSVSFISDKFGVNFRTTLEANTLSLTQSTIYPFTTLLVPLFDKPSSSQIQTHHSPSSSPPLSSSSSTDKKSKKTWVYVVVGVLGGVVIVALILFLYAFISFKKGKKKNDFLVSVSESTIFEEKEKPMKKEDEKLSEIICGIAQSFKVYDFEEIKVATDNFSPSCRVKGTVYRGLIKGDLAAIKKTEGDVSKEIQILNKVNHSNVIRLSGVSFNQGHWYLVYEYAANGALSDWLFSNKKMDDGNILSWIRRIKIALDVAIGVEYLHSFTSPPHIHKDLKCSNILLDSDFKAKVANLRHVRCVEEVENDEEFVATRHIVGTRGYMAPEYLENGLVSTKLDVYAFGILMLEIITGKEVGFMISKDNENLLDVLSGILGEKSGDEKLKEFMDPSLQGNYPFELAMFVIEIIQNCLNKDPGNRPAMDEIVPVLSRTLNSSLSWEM", "assay": "Saturation and competitive binding on LYR3-YFP expressed in N. benthamiana leaf membrane fractions", "details": "LYR3-YFP in N. benthamiana leaf membranes; competition with 0.9 nM LCO-IV(35S, C16:2Δ2,9); read-out: Affinity (nM) for LYR3 (Ki)", "excerpt": "Genes LYR3, LYK9 and LYR6 were inserted into a binary vector, fused in C-terminal with a fluorescent protein (Yellow Fluorescent Protein: YFP) and introduced into Nicotiana benthamiana leaves using agroinfiltration by Agrobacterium tumefaciens. Meanwhile, NFP and LYK3 genes which encode putative receptors […] Nod factors were inserted into the same vectors and expressed in the same conditions.\n3 days after agro-infiltration, leaves of N. benthamiana expressing the different constructs were harvested and ground in liquid nitrogen. Membrane fractions were prepared from the ground material, using the same protocol as that described above for the preparation of microsomal fractions, except that 0.6% (w/v) of polyvinyl-polypyrrolidone were added to extraction buffer. After centrifugation at 3000×g, the supernatant was collected and centrifuged at 45000×g. The resulting (membrane fraction) pellet was resuspended in binding buffer, and stored at −80° C. in the presence of 10% or 50% glycerol, until use.\nMembrane proteins were separated by 10% polyacrylamide gel electrophoresis in SDS, and transferred onto nitrocellulose membrane, and detection of recombinant proteins made using anti-GFP antibody. Meanwhile, the properties of specific binding to LCOs were assessed by equilibrium binding, as described in Example 1, using 0.8 to 2.4 nM of LCO-IV (^35S, C16:2Δ2, 9) +/−2 μM of unlabeled LCO-IV (S, C16: 2Δ2, 9), and 25 micrograms to 80 micrograms of membrane protein, depending of the expression level of the protein labeled with YFP.\nTo further characterize the binding properties of the protein LYR3, saturation binding experiments using LCO-IV (^35S, C16:2Δ2, 9) and competitive binding experiments in the presence of different COs or LCOs were performed."}, "[1]": {"system": "100 kDa polypeptide (MtNFBS2)", "assay": "Photolabeling of the 100 kDa polypeptide in membrane fractions, with excess competitors", "format": "binding, Medicago truncatula", "details": "2 μM competitor, 5 nM azido ligand, dmi3 membrane fraction", "excerpt": "To assess the molecular mass of the affine protein of Nod factors responsible for binding properties of MtNFBS2, a photolabeling with Nod factors analogs containing a photoactivatable group, which after irradiation in a given wavelength reactive species which can form a covalent bond with the surrounding molecules, has been taken. […] homologues of these molecules have been synthesized and labeled with ^35S to enable detection of the stable complex ligand/binding protein.\nFor photolabeling, 5 nM of radioactive and photoactivatable ligand, alone or in the presence of an excess (2 μM) different competitors were incubated in binding buffer, in the same conditions as described in Example 1 above for the binding experiments at equilibrium, with 300 micrograms of membrane protein fraction obtained from cultured cells of wild-type Medicago truncatula (A 17), or the dmi3 mutant of Medicago truncatula. After 1 hour of incubation, the samples were irradiated for 5 min at 254 nm or 10 min at 365 nm with a fluorescent tube at a distance of 4 cm. The free ligand was removed by centrifugation, and the membrane pellet was washed two times in binding buffer.\nThe membrane pellet proteins were separated by polyacrylamide gel electrophoresis in 10% SDS, and transferred onto nitrocellulose membrane, and detection was carried out by autoradiography."}, "PpLYR3": {"target": "PpLYR3 (Prunus persica, UniProt A0A251NBL6)", "sequence (A0A251NBL6 entry or part of it)": "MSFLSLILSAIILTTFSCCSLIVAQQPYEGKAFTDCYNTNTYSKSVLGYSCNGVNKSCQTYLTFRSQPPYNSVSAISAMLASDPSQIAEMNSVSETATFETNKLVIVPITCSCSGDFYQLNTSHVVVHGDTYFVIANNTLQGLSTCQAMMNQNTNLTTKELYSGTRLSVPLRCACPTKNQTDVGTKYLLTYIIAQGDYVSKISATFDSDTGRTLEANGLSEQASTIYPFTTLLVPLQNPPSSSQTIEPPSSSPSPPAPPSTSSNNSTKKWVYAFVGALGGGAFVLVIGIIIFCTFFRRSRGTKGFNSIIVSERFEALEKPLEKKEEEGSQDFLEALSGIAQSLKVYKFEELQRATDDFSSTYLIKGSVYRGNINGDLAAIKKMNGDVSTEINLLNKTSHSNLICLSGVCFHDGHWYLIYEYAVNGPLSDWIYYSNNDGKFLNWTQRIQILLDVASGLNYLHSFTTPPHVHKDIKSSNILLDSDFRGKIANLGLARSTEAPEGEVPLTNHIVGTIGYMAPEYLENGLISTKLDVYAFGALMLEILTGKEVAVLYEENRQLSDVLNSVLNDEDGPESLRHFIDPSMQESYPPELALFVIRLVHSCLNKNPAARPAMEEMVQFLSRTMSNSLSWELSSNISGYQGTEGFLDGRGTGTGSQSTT", "assay": "Equilibrium, saturation and competition binding on PpLYR3 expressed in N. benthamiana leaves", "details": "PpLYR3, competition", "method": "In non-legumes, PpLYR3, SILYR3 and AtLysM-RLK4 genes have been cloned, the corresponding proteins were expressed in N. benthamiana leaves, and their ability to bind to LCOs was determined by binding experiments at equilibrium, as described above for legumes LYR3 proteins.\nThe interaction of PpLYR3 with the Nod LCO-IV (^35S, C16:2Δ2, 9) factor has been characterized in more detail by means of saturation and competition experiments. The results obtained are illustrated in FIG. 9. […] Similarly, PpLYR3 specifically recognizes the LCOs as interaction with COs (CO-IV and CO-VIII) is of low affinity (Ki>5 μM)."}},
  "data": [
    {"smiles": "CC(=O)N[C@H]1[C@H](O[C@H]2[C@H](O)[C@@H](NC(C)=O)C(O)O[C@@H]2CO)O[C@H](CO)[C@@H](O[C@@H]2O[C@H](CO)[C@@H](O[C@@H]3O[C@H](CO)[C@@H](O)[C@H](O)[C@H]3NC(C)=O)[C@H](O)[C@H]2NC(C)=O)[C@@H]1O", "note": "(stereo partly drawn) [CO-IV, chitotetraose]", "values": [
      {"measurement": "Ki", "setting": "LYR3", "result": "> 5000", "unit": "nM"},
      {"measurement": "binding of the radiolabeled photoactivatable ligand to the 100 kDa polypeptide in presence of excess competitor", "setting": "[1]", "result": "not"},
      {"measurement": "Ki", "setting": "PpLYR3", "result": "> 5", "unit": "µM"}
    ]}
  ]
}
